Consider eleven molecules from patent publication US10125100B2, “Kinase inhibitors” (Respivert Limited, priority 2014, dated 2018).

In data set [1] the test system is mitosis in PBMCs. Kind of data set: (g) Cell mitosis assay. The class given is cell-based. Particulars: Homo sapiens, PBMC, 5 μg/mL. On the procedure: Peripheral blood mononucleocytes (PBMCs) from healthy subjects are separated from whole blood (Quintiles, London, UK) using a density gradient (Histopaque®-1077, Sigma-Aldrich, Poole, UK). The PBMCs (3 million cells per sample) are subsequently treated with 2% PHA (phytohaemagglutinin, Sigma-Aldrich, Poole, UK) for 48 hr, followed by a 20 hr exposure to varying concentrations of test compounds. At 2 hr before collection, PBMCs are treated with demecolcine (0.1 μg/mL; Invitrogen, Paisley, UK) to arrest cells in metaphase. To observe mitotic cells, PBMCs are permeabilized and fixed by adding Intraprep (50 μL; Beckman Coulter, France), and stained with anti-phospho-histone 3 ([…]; #9701; Cell Signalling, Danvers, Mass.) and propidium iodide (1 mg/mL; Sigma-Aldrich, Poole, UK) as previously described (Muehlbauer P. A. and Schuler M. J., Mutation Research, 2003, 537:117-130). Fluorescence is observed using an ATTUNE flow cytometer (Invitrogen, Paisley, UK), gating for lymphocytes.

Data set [2] deals with p38 MAPKα (MAPK14) (Homo sapiens (Human), UniProt Q16539). Put plainly: p38 MAPKα enzyme inhibition (Method 2), Z-LYTE FRET. The data set is classed as biochemical. The protocol: (§1) The enzyme inhibitory activities of compounds disclosed herein are determined by FRET using synthetic peptides labelled with both donor and acceptor fluorophores (Z-LYTE, Invitrogen Ltd., Paisley, UK).
Sequence of p38 MAPKα (MAPK14) (Q16539 whole entry): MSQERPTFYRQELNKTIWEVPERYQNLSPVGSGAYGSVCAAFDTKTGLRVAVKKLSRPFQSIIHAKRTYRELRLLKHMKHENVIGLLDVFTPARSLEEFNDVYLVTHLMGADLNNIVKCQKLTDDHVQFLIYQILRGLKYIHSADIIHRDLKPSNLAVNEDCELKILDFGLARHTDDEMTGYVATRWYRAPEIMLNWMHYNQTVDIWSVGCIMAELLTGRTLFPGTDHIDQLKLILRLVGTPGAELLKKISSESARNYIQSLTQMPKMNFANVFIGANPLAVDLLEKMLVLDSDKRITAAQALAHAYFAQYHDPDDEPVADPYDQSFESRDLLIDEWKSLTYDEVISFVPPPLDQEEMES
The following two assay variants can be used for determination of p38 MAPKα inhibition.
The inhibitory activities of test compounds against the p38 MAPKα isoform (MAPK14: Invitrogen) are evaluated indirectly by determining the level of activation/phosphorylation of the down-stream molecule, MAPKAP-K2. The p38 MAPKα protein (80 ng/mL, 2.5 μL) is mixed with the test compound (2.5 μL of either 4 μg/mL, 0.4 μg/mL, 0.04 μg/mL or 0.004 μg/mL) for 2 hr at RT. […] The mixture is incubated for 1 hr at RT. Development reagent (protease, 5 μL) is added for 1 hr prior to detection in a fluorescence microplate reader (Varioskan® Flash, ThermoFisher Scientific).
This method follows the same steps as Method 1 above, but utilises a higher concentration of the p38 MAPKα protein (2.5 μL of 200 ng/mL protein instead of 2.5 μL of 80 ng/mL protein) for mixing with the test compound (tested at either 1 μg/mL, 0.1 μg/mL, 0.01 μg/mL or 0.001 μg/mL).
(§2) In all cases, the site-specific protease cleaves non-phosphorylated peptide only and eliminates the FRET signal. Phosphorylation levels of each reaction are calculated using the ratio of coumarin emission (donor) over fluorescein emission (acceptor), for which high ratios indicate high phosphorylation and low ratios indicate low phosphorylation levels.

Data set [3] addresses c-Src (Homo sapiens (Human), UniProt P12931). Put plainly: c-Src enzyme inhibition, Z-LYTE FRET. The data set is classed as biochemical. The protocol: as §1
The inhibitory activities of compounds of the invention against c-Src and Syk enzymes (Invitrogen), are evaluated in a similar fashion to that described hereinabove. The relevant enzyme (3000 ng/mL or 2000 ng/mL respectively, 2.5 μL) is incubated with the test compound (either 1 μg/mL, 0.1 μg/mL, 0.01 μg/mL, or 0.001 μg/mL, 2.5 μL each) for 2 hr at RT. The FRET peptides (8 μM, 2.5 μL), and appropriate ATP solutions (2.5 μL, 800 μM for c-Src, and 60 μM ATP for Syk) are then added to the enzymes/compound mixtures and the mixture incubated for 1 hr. Development reagent (protease, 5 μL) is added for 1 hr prior to detection in a fluorescence microplate reader (Varioskan® Flash, ThermoFisher Scientific).
as §2

Data set [4] has as its target Syk (Homo sapiens (Human), UniProt P43405). Kind of data set: Syk enzyme inhibition, Z-LYTE FRET. The data set is classed as biochemical. On the procedure:
as §1
The relevant enzyme (3000 ng/mL or 2000 ng/mL respectively, 2.5 μL) is incubated with the test compound (either 1 μg/mL, 0.1 μg/mL, 0.01 μg/mL, or 0.001 μg/mL, 2.5 μL each) for 2 hr at RT. The FRET peptides (8 μM, 2.5 μL), and appropriate ATP solutions (2.5 μL, 800 μM for c-Src, and 60 μM ATP for Syk) are then added to the enzymes/compound mixtures and the mixture incubated for 1 hr. Development reagent (protease, 5 μL) is added for 1 hr prior to detection in a fluorescence microplate reader (Varioskan® Flash, ThermoFisher Scientific).
as §2

The subject of data set [5] is Jurkat cells. Put plainly: (r) Cell cytotoxicity assay. Particulars: 24 hours. The class given is cell-based, human. In a few lines: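 Jurkat cells (1×10^5/well, RPMI + 10% FBS) exposed to compound at 20, 5 or 1 μg/mL final (1.0% DMSO control) for 24 h at 37° C., 5% CO2. Then stained with 7.5 μg/mL propidium iodide for 15 min. % viability = PI-negative cells by flow cytometry, normalized to DMSO.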

pIC50: −log10 of the molar value.

Sequence of c-Src (P12931 whole entry, looked up): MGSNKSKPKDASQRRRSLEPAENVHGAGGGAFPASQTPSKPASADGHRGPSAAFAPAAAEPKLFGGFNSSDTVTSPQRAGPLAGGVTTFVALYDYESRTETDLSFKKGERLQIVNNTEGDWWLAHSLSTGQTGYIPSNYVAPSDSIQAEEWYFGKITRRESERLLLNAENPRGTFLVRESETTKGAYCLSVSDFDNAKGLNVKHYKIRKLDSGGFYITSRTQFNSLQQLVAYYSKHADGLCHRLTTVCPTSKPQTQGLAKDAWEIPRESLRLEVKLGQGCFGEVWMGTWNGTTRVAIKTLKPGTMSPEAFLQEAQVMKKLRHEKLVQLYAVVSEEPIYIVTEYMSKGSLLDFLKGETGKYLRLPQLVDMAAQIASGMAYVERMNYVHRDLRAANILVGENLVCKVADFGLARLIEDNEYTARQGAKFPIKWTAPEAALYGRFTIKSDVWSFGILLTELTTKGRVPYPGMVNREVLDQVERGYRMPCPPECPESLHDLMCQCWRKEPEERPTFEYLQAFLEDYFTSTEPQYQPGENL

One may read the inhibition as the drop in the measured response relative to a control, in per cent. In data set [1], `COc1cc(Nc2cc(Oc3ccc(NC(=O)Nc4cc(C(C)(C)C)cc(NS(C)(=O)=O)c4OC)c4ccccc34)ccn2)ccc1C(=O)NCCN1CCC(F)(F)CC1` [17(al), 4-[[4-[[4-[[5-tert-butyl-3-(methanesulfonamido)-2-methoxy-phenyl]carbamoylamino]-1-naphthyl]oxy]-2-pyridyl]amino]-N-[2-(4,4-difluoro-1-piperidyl)ethyl]-2-methoxy-benzamide] had an inhibition at 5 µg/mL of 21.2%.

By pIC50 is commonly meant the negative decadic logarithm of the IC50, by convention in mol/L. A higher pIC50 goes with a low IC50. In the case of `COc1cc(Nc2cc(Oc3ccc(NC(=O)Nc4cc(C(C)(C)C)cc(NC(=O)CO)c4OC)c4ccccc34)ccn2)ccc1C(=O)NCCN1CC[S+]([O-])CC1` [Example 41, 4-((4-((4-(3-(5-(tert-Butyl)-3-(2-hydroxyacetamido)-2-methoxyphenyl)ureido)naphthalen-1-yl)oxy)pyridin-2-yl)amino)-2-methoxy-N-(2-(1-oxidothiomorpholino)ethyl)benzamide], the negative-log IC50 (pIC50) in data set [2] is 7.51. Further, in data set [3], the pIC50 was 7.89. The same molecule had a negative logarithm of the IC50 (pIC50) in data set [4] of 6.49. For the same molecule, in data set [5], the “% Viability at 1 μg/mL” value is 90.5%, the “% Viability at 5 μg/mL” value came out at 67.3% and the “% Viability at 20 μg/mL” value was 55.3%.

For the molecule `COc1c(NC(=O)Nc2ccc(Oc3ccnc(Nc4ccc(C(=O)NCCN5CCOCC5)cc4)c3)c3ccccc23)cc(C(C)(C)C)cc1NS(C)(=O)=O` [17(u), 4-[[4-[[4-[[5-tert-butyl-3-(methanesulfonamido)-2-methoxy-phenyl]carbamoylamino]-1-naphthyl]oxy]-2-pyridyl]amino]-N-(2-morpholinoethyl)benzamide], in data set [1], the inhibition at 5 µg/mL is 86.9%.

As for `COc1cc(Nc2cc(Oc3ccc(NC(=O)Nc4cc(C(C)(C)C)cc(NS(C)(=O)=O)c4OC)c4ccccc34)ccn2)ccc1S(=O)(=O)CCOCCOCCO` [Example 40, N-(5-(tert-Butyl)-3-(3-(4-((2-((4-((2-(2-(2-hydroxyethoxy)ethoxy)ethyl)sulfonyl)-3-methoxyphenyl)amino)pyridin-4-yl)oxy)naphthalen-1-yl)ureido)-2-methoxyphenyl)-methanesulfonamide], the pIC50 was 6.79 in data set [2], 6.71 in data set [3] and 6.40 in data set [4]. The “% Viability at 1 μg/mL” value in data set [5] worked out at 89.6%. In data set [5], the “% Viability at 5 μg/mL” value was determined as 73.6%. The “% Viability at 20 μg/mL” value in data set [5] amounted to 67.1%.

`COc1cc(Nc2cc(Oc3ccc(NC(=O)Nc4cc(C(C)(C)C)cc(NS(C)(=O)=O)c4OC)c4ccccc34)ccn2)ccc1C(=O)NCCCCN1CCOCC1` [17(y), 4-[[4-[[4-[[5-tert-butyl-3-(methanesulfonamido)-2-methoxy-phenyl]carbamoylamino]-1-naphthyl]oxy]-2-pyridyl]amino]-2-methoxy-N-(4-morpholinobutyl)benzamide] yielded an inhibition at 5 µg/mL in data set [1] of 70.8%.

In the case of `COc1cc(Nc2cc(Oc3ccc(NC(=O)Nc4cc(C(C)(C)C)cc(N(CCO)S(C)(=O)=O)c4OC)c4ccccc34)ccn2)ccc1C(=O)NCCN1CC[S+]([O-])CC1` [Example 48, 4-((4-((4-(3-(5-(tert-Butyl)-3-(N-(2-hydroxyethyl)methylsulfonamido)-2-methoxyphenyl)-ureido)naphthalen-1-yl)oxy)pyridin-2-yl)amino)-2-methoxy-N-(2-(1-oxidothiomorpholino)-ethyl)benzamide], the pIC50 in data set [2] was 7.54; in data set [3], 7.70; in data set [4], 7.26. Further, the “% Viability at 1 μg/mL” value in data set [5] is 89.0%. Moreover, the “% Viability at 5 μg/mL” value in data set [5] was determined as 63.8%. Further, in data set [5], the “% Viability at 20 μg/mL” value is reported as 54.2%.

Molecule `COc1cc(Nc2cc(Oc3ccc(NC(=O)Nc4cc(C(C)(C)C)cc(NS(C)(=O)=O)c4OC)c4ccccc34)ccn2)ccc1S(=O)(=O)CC(CO)(CO)CO` [Example 45, N-(5-(tert-Butyl)-3-(3-(4-((2-((4-((3-hydroxy-2,2-bis(hydroxymethyl)propyl)sulfonyl)-3-methoxyphenyl)amino)pyridin-4-yl)oxy)naphthalen-1-yl)ureido)-2-methoxyphenyl)-methanesulfonamide] gave a pIC50 in data set [2] of 7.44. The molecule also showed a pIC50 in data set [3] of 7.40. Also, the pIC50 in data set [4] was 6.97. For the same molecule, in data set [5], the “% Viability at 1 μg/mL” value was determined as 97.7%, the “% Viability at 5 μg/mL” value was determined as 93.7% and the “% Viability at 20 μg/mL” value worked out at 9.8%.

Take `COc1cc(Nc2cc(Oc3ccc(NC(=O)Nc4cc(C(C)(C)C)cc(NS(C)(=O)=O)c4OC)c4ccccc34)ccn2)cc(OC)c1C(=O)NCCN1CCN(C)CC1` [Example 22, 4-((4-((4-(3-(5-(tert-Butyl)-2-methoxy-3-(methylsulfonamido)phenyl)ureido)naphthalen-1-yl)oxy)pyridin-2-yl)amino)-2,6-dimethoxy-N-(2-(4-methylpiperazin-1-yl)ethyl)benzamide]: the pIC50 is 8.22 in data set [2], 7.77 in data set [3] and 6.86 in data set [4]. In addition, in data set [5], the “% Viability at 1 μg/mL” value was found to be 102.8%. In addition, the “% Viability at 5 μg/mL” value in data set [5] turned out to be 96.6%. Further, in data set [5], the “% Viability at 20 μg/mL” value was determined as 42.9%.

For `COc1c(NC(=O)Nc2ccc(Oc3ccnc(Nc4ccc(C(=O)O)c(N(C)C)c4)c3)c3ccccc23)cc(C(C)(C)C)cc1NS(C)(=O)=O` [17(am), 4-[[4-[[4-[[5-tert-butyl-3-(methanesulfonamido)-2-methoxy-phenyl]carbamoylamino]-1-naphthyl]oxy]-2-pyridyl]amino]-2-(dimethylamino)benzoic acid], the pIC50 in data set [2] is 8.40. Further, in data set [3], the negative logarithm of the IC50 (pIC50) is 7.17. In data set [4], this molecule showed a pIC50 of 6.91. Also, in data set [5], the “% Viability at 1 μg/mL” value worked out at 103.4%, the “% Viability at 5 μg/mL” value is listed as 90.5% and the “% Viability at 20 μg/mL” value amounted to 32.5%.

Turning to `COc1cc(Nc2cc(Oc3ccc(NC(=O)Nc4cc(C(C)(C)C)cc(NS(C)(=O)=O)c4OC)c4ccccc34)ccn2)ccc1C(=O)NC(CO)(CO)CO` [17(cm), 4-((4-((4-(3-(5-(tert-Butyl)-2-methoxy-3-(methylsulfonamido)phenyl)ureido)naphthalen-1-yl)oxy)pyridin-2-yl)amino)-N-(1,3-dihydroxy-2-(hydroxymethyl)propan-2-yl)-2-methoxybenzamide], the pIC50 in data set [2] is 7.33. In data set [3], this molecule showed a pIC50 of 7.54. In data set [4], this molecule showed a pIC50 of 7.09. In addition, in data set [5], the “% Viability at 1 μg/mL” value was found to be 95.9%, the “% Viability at 5 μg/mL” value was determined as 77.0% and the “% Viability at 20 μg/mL” value is 14.5%.

`COc1cc(Nc2cc(Oc3ccc(NC(=O)Nc4cc(C(C)(C)C)cc(NS(C)(=O)=O)c4OC)c4ccccc34)ccn2)ccc1C(=O)NCCN(C)CCO` [17(ac), 4-[[4-[[4-[[5-tert-butyl-3-(methanesulfonamido)-2-methoxy-phenyl]carbamoylamino]-1-naphthyl]oxy]-2-pyridyl]amino]-N-[2-[2-hydroxyethyl(methyl)amino]ethyl]-2-methoxy-benzamide] displayed an inhibition at 5 µg/mL in data set [1] of 85.8%.
